# Test results as given in PMC3687097 (Diabetes Therapy, 2013).
# “Also recorded” adds a separate entry of the source. Where two headings read alike, the source gives them in different places.
# Key:
# [1] = for Patients reporting an adverse event: 22 patients
# [2] = cited from earlier work
"Episodes of hypoglycemia ([1]; dapagliflozin 10 mg single oral dose, with and without voglibose)",Structure (SMILES),Patients reporting an adverse event ([1]; pharmacokinetic sampling period 1: dapagliflozin with voglibose),Patients reporting an adverse event ([1]; pharmacokinetic sampling period 2: dapagliflozin only),"Intensity of observed AEs ([1]; whole study, dapagliflozin 10 mg with or without voglibose)",Systemic / gastrointestinal absorption after oral administration [2]
no episodes of hypoglycemia,CCOc1ccc(Cc2cc([C@@H]3O[C@H](CO)[C@@H](O)[C@H](O)[C@H]3O)ccc2Cl)cc1 [Dapagliflozin],one patient,three patients,mild or moderate,
,OCC(CO)N[C@H]1C[C@](O)(CO)[C@@H](O)[C@H](O)[C@H]1O [Voglibose],,,,poorly absorbed; also recorded: minimal systemic absorption
